The source of these data is patent US7608627B2, “6-azaindole compound” (Takeda Pharmaceutical Company Limited, priority 2005, dated 2009).

Where a name gives a salt, the structure may show the parent alone.

The term melting point denotes the temperature, or range, at which the solid turns liquid. With `CNCc1cc2ccnc(Cl)c2[nH]1.Cl`, the melting point is 264 to 266 °C (dec.).
As for `Cl.Clc1nccc2cc(CNCc3ccccc3)[nH]c12`, the figure is 201 to 204 °C; as for `Cl.c1ccc(CON=C(c2ccccc2)c2cc3ccncc3[nH]2)cc1`, 153 to 155 °C.
As for `Cl.Clc1nccc2cc(CNC3CCCC3)[nH]c12`, the figure is 241 to 244 °C; as for `Cl.Clc1nccc2cc(CNCc3ccco3)[nH]c12`, 98 to 101 °C; as for `Cl.Clc1nccc2cc(CNCCN3CCOCC3)[nH]c12`, 146 to 150 °C.
The molecule `Cl.Clc1nccc2cc(CNCc3ccccn3)[nH]c12` showed a melting point of 176 to 179 °C.
The molecule `CN1CCN(C(=O)c2cc3ccnc(Cl)c3[nH]2)CC1` returned a melting point of 230 to 232 °C.
As for `Cl.Clc1nccc2cc(CNC3CCN(Cc4ccccc4)CC3)[nH]c12`, the figure is 295 to 310 °C (dec.); as for `Cl.Clc1nccc2cc(CN3CCCCC3)[nH]c12`, 240 to 244 °C; as for `Cl.NCCCO/N=C(\c1ccccc1)c1cc2ccncc2[nH]1`, 168 to 174 °C (dec.).
Next, `CCNCc1cc2ccnc(Cl)c2[nH]1.Cl`: 242 to 245 °C (dec.); `N=C(N)NN=C(c1ccccc1)c1cc2ccncc2[nH]1` (as salt: hydrochloride): 306 to 310 °C.
`N=C(N)N/N=C(\c1ccccc1)c1cc2cc(Cl)ncc2[nH]1` (as salt: hydrochloride) registered a melting point of 274 to 278 °C.
Molecule `NCc1cc2ccncc2[nH]1` (as salt: hydrochloride) came in with a melting point of 302 to 303 °C.
Next, `CC(C)/C(=N\NC(=N)N)c1cc2ccncc2[nH]1` (as salt: hydrochloride): 242 to 245 °C.
In the case of `CC(C)C/C(=N\NC(=N)N)c1cc2ccncc2[nH]1` (as salt: hydrochloride), the melting point fell in the range of 232 to 236 °C.
As to `Clc1nccc2cc(C(NCc3ccccc3)c3ccccc3)[nH]c12` (stereo not shown) (as salt: hydrochloride) [Example 34, N-Benzyl-N-[(7-chloro-1H-pyrrolo[2,3-c]pyridin-2-yl)(phenyl)methyl]amine dihydrochloride], the melting point was 170 to 185 °C (dec.).
As for `NC(c1ccccc1)c1cc2ccncc2[nH]1` (stereo not shown) (as salt: hydrochloride) [Example 40, 1-Phenyl-1-(1H-pyrrolo[2,3-c]pyridin-2-yl)methylamine dihydrochloride], the figure is 240 to 250 °C.
Regarding `C/C(=N\NC(=N)N)c1cc2ccncc2[nH]1` (as salt: hydrochloride) [Example 71, [[1-(1H-Pyrrolo[2,3-c]pyridin-2-yl)ethylidene]amino]guanidine dihydrochloride], the melting point is 314 to 318 °C (dec.).
Next, `CC(N)c1cc2ccncc2[nH]1` (stereo not shown) (as salt: hydrochloride) [Example 75, 1-(1H-Pyrrolo[2,3-c]pyridin-2-yl)ethylamine dihydrochloride]: 289 to 292 °C.
As for `NCCON=C(c1ccc(Cl)c(Cl)c1)c1cc2ccncc2[nH]1` (as salt: trifluoroacetate) [Example 134, (3,4-Dichlorophenyl)(1H-pyrrolo[2,3-c]pyridin-2-yl)methanone O-(2-aminoethyl)oxime bis(hydrogen trifluoroacetate)], the figure is 64 to 68 °C; as for `Cl.Cl.c1ccc(C(=NOC2CCCNC2)c2cc3ccncc3[nH]2)cc1` (single isomer, unassigned), 240 to 245 °C (dec.).
As for `c1ccc(C(=NOC2CCNCC2)c2cc3ccncc3[nH]2)cc1` (single isomer, unassigned) (as salt: hydrochloride), the melting point was 240 to 245 °C (dec.).
Next, `c1ccc(C(=NOC2CCCNC2)c2cc3ccncc3[nH]2)cc1` (single isomer, unassigned) (as salt: hydrochloride): 240 to 245 °C (dec.).
